This is an account of results in patent US20040102431A1, “Substituted amino-aza-cycloalkanes useful against malaria” (priority 2000, published 2004).

SMILES strings stand for the structures.

This experiment deals with plasmepsin II (Plasmodium falciparum, UniProt P46925). The experiment in a line: biochemical. The note with it: Additional Examples table; FRET, pH 5, 37° C., 40 min, substrate 1 μM; read-out: IC50 (nM) on plasmepsin II.
Sequence of plasmepsin II (P46925 125-453): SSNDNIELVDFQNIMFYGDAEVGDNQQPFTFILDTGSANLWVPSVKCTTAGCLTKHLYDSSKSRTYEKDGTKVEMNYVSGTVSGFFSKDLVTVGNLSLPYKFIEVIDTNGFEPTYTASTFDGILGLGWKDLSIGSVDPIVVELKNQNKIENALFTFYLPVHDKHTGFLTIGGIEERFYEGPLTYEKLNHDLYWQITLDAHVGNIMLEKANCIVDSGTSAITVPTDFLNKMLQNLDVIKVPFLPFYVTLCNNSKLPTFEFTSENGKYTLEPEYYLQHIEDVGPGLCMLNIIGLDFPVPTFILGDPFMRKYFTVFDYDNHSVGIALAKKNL
The term IC50 denotes the concentration at which inhibition is half-maximal. Take `CCCCCc1ccc(C(=O)N(Cc2ccc(-c3ccc(OC)c(OC)c3)cc2)C2CCN(CC3=CCCCC3)CC2)cc1` [Example 38, N-(1-Cyclohex-1-enylmethyl-piperidin-4-yl)-N-(3′,4′-dimethoxybiphenyl-4-ylmethyl)-4-pentylbenzamide]: the IC50 was 19 nM. `CCCCCc1ccc(C(=O)N(Cc2ccc(-c3cccnc3)cc2)C2CCN(CCC(C)C)CC2)cc1` [Example 39, N-[1-(3-Methylbutyl)piperidin-4-yl]-4-pentyl-N-(4-pyridin-3-yl-benzyl)benzamide]: the IC50 came to 20 nM. `CCCCCc1ccc(C(=O)N(Cc2ccc(-c3ccc(C#N)cc3)cc2)C2CCN(CC3=CCCCC3)CC2)cc1` [Example 40, N-(4′-Cyanobiphenyl-4-ylmethyl)-N-(1-cyclohex-1-enylmethyl-piperidin-4-yl)-4-pentylbenzamide]: the concentration for half-maximal inhibition (IC50) is 25 nM. With `CCCCCc1ccc(C(=O)N(Cc2ccc(-c3ccc(OC)c(OC)c3)cc2)C2CCN(Cc3ccncc3)CC2)cc1` [Example 41, N-(3′,4′-Dimethoxybiphenyl-4-ylmethyl)-4-pentyl-N-(1-pyridin-4-ylmethylpiperidin-4-yl)benzamide] the figure was 25 nM; with `CCCCCc1ccc(C(=O)N(Cc2ccc(-c3ccc(C#N)cc3)cc2)C2CCN(Cc3ccncc3)CC2)cc1` [Example 42, N-(4′-Cyano-biphenyl-4-ylmethyl)-4-pentyl-N-(1-pyridin-4-ylmethylpiperidin-4-yl)benzamide], 28 nM; with `CCCCCc1ccc(C(=O)N(Cc2ccc(-c3ccc(OC)c(OC)c3)cc2)C2CCN(Cc3ccoc3)CC2)cc1` [Example 43, N-(3′,4′-Dimethoxybiphenyl-4-ylmethyl)-N-(1-furan-3-ylmethylpiperidin-4-yl)-4-pentylbenzamide], 31 nM. The value for `CCCCCc1ccc(C(=O)N(Cc2ccc(-c3ccc(OCCO)cc3)cc2)C2CCN(Cc3ccncc3)CC2)cc1` [Example 44, N-[4′-(2-Hydroxyethoxy)-biphenyl-4-ylmethyl]-4-pentyl-N-(1-pyridin-4-ylmethylpiperidin-4-yl)benzamide] was 39 nM; that for `CCCCCc1ccc(C(=O)N(Cc2ccc(-c3cccnc3)cc2)C2CCN(Cc3ccsc3)CC2)cc1` [Example 45, 4-Pentyl-N-(4-pyridin-3-yl-benzyl)-N-(1-thiophen-3-ylmethylpiperidin-4-yl)benzamide] was 42 nM; that for `CCCCCc1ccc(C(=O)N(Cc2ccc(-c3ccc(OC)c(OC)c3)cc2)C2CCN(Cc3cccnc3)CC2)cc1` [Example 46, N-(3′,4′-Dimethoxybiphenyl-4-ylmethyl)-4-pentyl-N-(1-pyridin-3-ylmethylpiperidin-4-yl)benzamide] was 45 nM.

With `CCCCCc1ccc(C(=O)N(Cc2ccc(-c3cccnc3)cc2)C2CCN(CC3CCCCC3)CC2)cc1` [Example 47, N-(1-Cyclohexylmethyl-piperidin-4-yl)-4-pentyl-N-(4-pyridin-3-yl-benzyl)benzamide], the IC50 was 46 nM. With `CCCCCc1ccc(C(=O)N(Cc2ccc(-c3ccc(OC)c(OC)c3)cc2)C2CCN(Cc3ccccc3)CC2)cc1` [Example 48, N-(1-Benzylpiperidin-4-yl)-N-(3′,4′-dimethoxybiphenyl-4-ylmethyl)-4-pentylbenzamide] the figure was 48 nM. With `CCCCCc1ccc(C(=O)N(Cc2ccc(-c3ccc4c(c3)OCO4)cc2)C2CCN(Cc3ccoc3)CC2)cc1` [Example 49, N-(4-Benzo[1,3]dioxol-5-yl-benzyl)-N-(1-furan-3-ylmethylpiperidin-4-yl)-4-pentylbenzamide] the figure was 52 nM. In the case of `CCCCCc1ccc(C(=O)N(Cc2ccc(-c3ccc4c(c3)OCO4)cc2)C2CCN(Cc3ccncc3)CC2)cc1` [Example 50, N-(4-Benzo[1,3]dioxol-5-yl-benzyl)-4-pentyl-N-(1-pyridin-4-ylmethylpiperidin-4-yl)benzamide], the IC50 was 54 nM. With `CCCCCc1ccc(C(=O)N(Cc2ccc(-c3ccc(OCCO)cc3)cc2)C2CCN(Cc3ccoc3)CC2)cc1` [Example 51, N-(1-Furan-3-ylmethypiperidin-4-yl)-N-[4′-(2-hydroxyethoxy)biphenyl-4-ylmethyl]-4-pentylbenzamide] the figure was 57 nM; with `CCCCCc1ccc(C(=O)N(Cc2ccc(-c3ccc4c(c3)OCO4)cc2)C2CCN(Cc3ccccc3)CC2)cc1` [Example 52, N-(4-Benzo[1,3]dioxol-5-yl-benzyl)-N-(1-benzylpiperidin-4-yl)-4-pentylbenzamide], 58 nM. The value for `CCCCCc1ccc(C(=O)N(Cc2ccc(-c3ccccc3F)cc2)C2CCN(Cc3ccccc3)CC2)cc1` [Example 53, N-(1-Benzylpiperidin-4-yl)-N-(2′-fluorobiphenyl-4-ylmethyl)-4-pentylbenzamide] was 61 nM; that for `CCCCCc1ccc(C(=O)N(Cc2ccc(-c3cccnc3)cc2)C2CCN(Cc3ccoc3)CC2)cc1` [Example 54, N-(1-Furan-3-ylmethylpiperidin-4-yl)-4-pentyl-N-(4-pyridin-3-yl-benzyl)benzamide] was 64 nM. Regarding `CCCCCc1ccc(C(=O)N(Cc2ccc(-c3ccc(C#N)cc3)cc2)C2CCN(Cc3cccnc3)CC2)cc1` [Example 55, N-(4′-Cyanobiphenyl-4-ylmethyl)-4-pentyl-N-(1-pyridin-3-ylmethylpiperidin-4-yl)benzamide], the concentration for half-maximal inhibition (IC50) was determined as 68 nM. Take `CCCCCc1ccc(C(=O)N(Cc2ccc(-c3ccccc3)cc2)C2CCN(Cc3ccc(OC)cc3)CC2)cc1` [Example 56, N-Biphenyl-4-ylmethyl-N-[1-(4-methoxybenzyl)piperidin-4-yl]-4-pentylbenzamide]: the IC50 stood at 71 nM. In the case of `CCCCCc1ccc(C(=O)N(Cc2ccc(-c3ccc4c(c3)OCO4)cc2)C2CCN(CC3=CCCCC3)CC2)cc1` [Example 57, N-(4-Benzo[1,3]dioxol-5-yl-benzyl)-N-(1-cyclohex-1-enylmethyl-piperidin-4-yl)-4-pentyl-benzamide], the IC50 turned out to be 75 nM. Take `CCCCCc1ccc(C(=O)N(Cc2ccc(OCc3ccc(F)cc3)cc2)C2CCN(Cc3ccccc3)CC2)cc1` [Example 58, N-(1-Benzyl-piperidin-4-yl)-N-[4-(4-fluoro-benzyloxy)-benzyl]-4-pentyl-benzamide]: the IC50 was determined as 79 nM. The value for `CCCCCc1ccc(C(=O)N(Cc2ccc(-c3ccc(C#N)cc3)cc2)C2CCN(Cc3ccccc3)CC2)cc1` [Example 59, N-(1-Benzyl-piperidin-4-yl)-N-(4′-cyano-biphenyl-4-ylmethyl)-4-pentyl-benzamide] was 81 nM.

For the molecule `CCCCCc1ccc(C(=O)N(Cc2ccc(-c3ccccc3F)cc2)C2CCN(Cc3ccoc3)CC2)cc1` [Example 60, N-(2′-Fluorobiphenyl-4-ylmethyl)-N-(1-furan-3-ylmethylpiperidin-4-yl)-4-pentylbenzamide], the IC50 was determined as 87 nM. As to `CCCCCc1ccc(C(=O)N(Cc2ccc(-c3cccnc3)cc2)C2CCN(CC3=CCCCC3)CC2)cc1` [Example 61, N-(1-Cyclohex-1-enylmethyl-piperidin-4-yl)-4-pentyl-N-(4-pyridin-3-yl-benzyl)benzamide], the IC50 was 89 nM. The value for `CCCCCc1ccc(C(=O)N(Cc2ccc(-c3ccc4c(c3)OCO4)cc2)C2CCN(Cc3ccc(O)cc3)CC2)cc1` [Example 62, N-(4-Benzo[1,3]dioxol-5-yl-benzyl)-N-[1-(4-hydroxybenzyl)piperidin-4-yl]-4-pentylbenzamide] was 90 nM; that for `CCCCCc1ccc(C(=O)N(Cc2ccc(-c3ccccc3F)cc2)C2CCN(Cc3ccncc3)CC2)cc1` [Example 63, N-(2′-Fluorobiphenyl-4-ylmethyl)-4-pentyl-N-(1-pyridin-4-ylmethyl-piperidin-4-yl)benzamide] was 95 nM. Regarding `CCCCCc1ccc(C(=O)N(Cc2ccc(-c3cccnc3)cc2)C2CCN(Cc3ccncc3)CC2)cc1` [Example 64, 4-Pentyl-N-(4-pyridin-3-yl-benzyl)-N-(1-pyridin-4-ylmethylpiperidin-4-yl)benzamide], the half-maximal inhibitory concentration (IC50) was found to be 102 nM. With `CCCCCc1ccc(C(=O)N(Cc2ccc(-c3ccccc3)cc2)C2CCN(Cc3cccnc3)CC2)cc1` [Example 65, N-Biphenyl-4-ylmethyl-4-pentyl-N-(1-pyridin-3-ylmethylpiperidin-4-yl)benzamide] the figure was 103 nM; with `CCCCCc1ccc(C(=O)N(Cc2ccc(-c3ccncc3)cc2)C2CCN(Cc3ccccc3)CC2)cc1` [Example 66, N-(1-Benzylpiperidin-4-yl)-4-pentyl-N-(4-pyridin-4-ylbenzyl)benzamide], 104 nM; with `CCCCCc1ccc(C(=O)N(Cc2ccc(-c3ccccc3Cl)cc2)C2CCN(Cc3ccccc3)CC2)cc1` [Example 68, N-(1-Benzylpiperidin-4-yl)-N-(2′-chlorobiphenyl-4-ylmethyl)-4-pentylbenzamide], 120 nM.

With `CCCCCc1ccc(C(=O)N(Cc2ccc(-c3ccccc3F)cc2)C2CCN(CC3=CCCCC3)CC2)cc1` [Example 69, N-(1-Cyclohex-1-enylmethylpiperidin-4-yl)-N-(2′-fluorobiphenyl-4-ylmethyl)-4-pentylbenzamide], the IC50 came out at 123 nM. The value for `CCCCCc1ccc(C(=O)N(Cc2ccc(-c3ccccn3)cc2)C2CCN(CC3=CCCCC3)CC2)cc1` [Example 70, N-(1-Cyclohex-1-enylmethylpiperidin-4-yl)-4-pentyl-N-(4-pyridin-2-ylbenzyl)benzamide] was 125 nM; that for `CCCCCc1ccc(C(=O)N(Cc2ccc(-c3ccccc3)cc2)C2CCN(Cc3ccoc3)CC2)cc1` [Example 71, N-Biphenyl-4-ylmethyl-N-(1-furan-3-ylmethyl-piperidin-4-yl)-4-pentylbenzamide] was 127 nM. With `CCCCCc1ccc(C(=O)N(Cc2ccc(-c3cccnc3)cc2)C2CCN(Cc3ccc(CO)o3)CC2)cc1` [Example 72, N-[1-(5-Hydroxymethyl-furan-2-ylmethyl)piperidin-4-yl]-4-pentyl-N-(4-pyridin-3-ylbenzyl)benzamide] the figure was 128 nM.

`CCCCCc1ccc(C(=O)N(Cc2ccc(-c3cccnc3)cc2)C2CCN(CC3CC3)CC2)cc1` [Example 73, N-(1-Cyclopropylmethylpiperidin-4-yl)-4-pentyl-N-(4-pyridin-3-yl-benzyl)benzamide]: the IC50 was found to be 128 nM.
